Results as given in PubChem BioAssay (NCI).
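Protocol summary: plate cells (96-well), add compound at 5 concentrations, incubate 48 h, interpolate endpoints linearly. TGI: concentration producing complete growth inhibition.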

Legend:
Experiment in all cases: NCI anticancer screen, dose series, 48 h
786-0 renal = test system: 786-0 renal
A498 renal = test system: A498 renal
A549 NSCLC = test system: A549 NSCLC
ACHN renal = test system: ACHN renal
CAKI-1 renal = test system: CAKI-1 renal
CCRF-CEM leukemia = test system: CCRF-CEM leukemia
COLO 205 colon = test system: COLO 205 colon
DU-145 prostate = test system: DU-145 prostate
EKVX NSCLC = test system: EKVX NSCLC
HCC-2998 colon = test system: HCC-2998 colon
HCT-116 colon = test system: HCT-116 colon
HCT-15 colon = test system: HCT-15 colon
HL-60(TB) leukemia = test system: HL-60(TB) leukemia
HOP-62 NSCLC = test system: HOP-62 NSCLC
HOP-92 NSCLC = test system: HOP-92 NSCLC
HS 578T breast = test system: HS 578T breast
HT29 colon = test system: HT29 colon
IGROV1 ovarian = test system: IGROV1 ovarian
K-562 leukemia = test system: K-562 leukemia
KM12 colon = test system: KM12 colon
LOX IMVI melanoma = test system: LOX IMVI melanoma
M14 melanoma = test system: M14 melanoma
MALME-3M melanoma = test system: MALME-3M melanoma
MCF7 breast = test system: MCF7 breast
MDA-MB-231 breast = test system: MDA-MB-231 breast
MDA-MB-435 = test system: MDA-MB-435
MDA-N = test system: MDA-N
MOLT-4 leukemia = test system: MOLT-4 leukemia
NCI-H226 lung = test system: NCI-H226 lung
NCI-H23 lung = test system: NCI-H23 lung
NCI-H460 lung = test system: NCI-H460 lung
NCI-H522 lung = test system: NCI-H522 lung
NCI/ADR-RES ovarian = test system: NCI/ADR-RES ovarian
OVCAR-3 ovarian = test system: OVCAR-3 ovarian
OVCAR-4 ovarian = test system: OVCAR-4 ovarian
OVCAR-5 ovarian = test system: OVCAR-5 ovarian
OVCAR-8 ovarian = test system: OVCAR-8 ovarian
PC-3 prostate = test system: PC-3 prostate
RPMI-8226 leukemia = test system: RPMI-8226 leukemia
RXF 393 renal = test system: RXF 393 renal
SF-268 CNS = test system: SF-268 CNS
SF-295 CNS = test system: SF-295 CNS
SF-539 CNS = test system: SF-539 CNS
SK-MEL-2 melanoma = test system: SK-MEL-2 melanoma
SK-MEL-28 melanoma = test system: SK-MEL-28 melanoma
SK-MEL-5 melanoma = test system: SK-MEL-5 melanoma
SK-OV-3 ovarian = test system: SK-OV-3 ovarian
SN12C renal = test system: SN12C renal
SNB-19 CNS = test system: SNB-19 CNS
SW-620 colon = test system: SW-620 colon
T-47D breast = test system: T-47D breast
TK-10 renal = test system: TK-10 renal
U251 CNS = test system: U251 CNS
UACC-257 melanoma = test system: UACC-257 melanoma
UACC-62 melanoma = test system: UACC-62 melanoma
UO-31 renal = test system: UO-31 renal
SR leukemia = test system: SR leukemia
SNB-75 CNS = test system: SNB-75 CNS

## O=c1[nH]nc(-c2ccccc2)n1/N=C/c1c[nH]c2ccccc12
786-0 renal
  TGI: > 100 µM
A498 renal
  TGI: > 100 µM
A549 NSCLC
  TGI: > 100 µM
ACHN renal
  TGI: > 100 µM
CAKI-1 renal
  TGI: > 100 µM
CCRF-CEM leukemia
  TGI: > 100 µM
COLO 205 colon
  TGI: > 100 µM
DU-145 prostate
  TGI: > 100 µM
EKVX NSCLC
  TGI: > 100 µM
HCC-2998 colon
  TGI: > 100 µM
HCT-116 colon
  TGI: > 100 µM
HCT-15 colon
  TGI: > 100 µM
HL-60(TB) leukemia
  TGI: > 100 µM
HOP-62 NSCLC
  TGI: > 100 µM
HOP-92 NSCLC
  TGI: > 100 µM
HS 578T breast
  TGI: > 100 µM
HT29 colon
  TGI: > 100 µM
IGROV1 ovarian
  TGI: > 100 µM
K-562 leukemia
  TGI: > 100 µM
KM12 colon
  TGI: > 100 µM
LOX IMVI melanoma
  TGI: > 100 µM
M14 melanoma
  TGI: > 100 µM
MALME-3M melanoma
  TGI: > 100 µM
MCF7 breast
  TGI: > 100 µM
MDA-MB-231 breast
  TGI: > 100 µM
MDA-MB-435
  TGI: > 100 µM
MDA-N
  TGI: > 100 µM
MOLT-4 leukemia
  TGI: > 100 µM
NCI-H226 lung
  TGI: > 100 µM
NCI-H23 lung
  TGI: > 100 µM
NCI-H460 lung
  TGI: > 100 µM
NCI-H522 lung
  TGI: > 100 µM
NCI/ADR-RES ovarian
  TGI: > 100 µM
OVCAR-3 ovarian
  TGI: > 100 µM
OVCAR-4 ovarian
  TGI: > 100 µM
OVCAR-5 ovarian
  TGI: > 100 µM
OVCAR-8 ovarian
  TGI: > 100 µM
PC-3 prostate
  TGI: > 100 µM
RPMI-8226 leukemia
  TGI: > 100 µM
RXF 393 renal
  TGI: > 100 µM
SF-268 CNS
  TGI: > 100 µM
SF-295 CNS
  TGI: > 100 µM
SF-539 CNS
  TGI: > 100 µM
SK-MEL-2 melanoma
  TGI: > 100 µM
SK-MEL-28 melanoma
  TGI: > 100 µM
SK-MEL-5 melanoma
  TGI: > 100 µM
SK-OV-3 ovarian
  TGI: > 100 µM
SN12C renal
  TGI: > 100 µM
SNB-19 CNS
  TGI: > 100 µM
SW-620 colon
  TGI: > 100 µM
T-47D breast
  TGI: > 100 µM
TK-10 renal
  TGI: 75.6 µM
U251 CNS
  TGI: > 100 µM
UACC-257 melanoma
  TGI: > 100 µM
UACC-62 melanoma
  TGI: > 100 µM
UO-31 renal
  TGI: > 100 µM

## COc1cc2cc(C(=O)N3C[C@@H](CCl)c4c3cc(N)c3ccccc43)[nH]c2c(OC)c1OC
A549 NSCLC
  TGI: > 100 µM
CAKI-1 renal
  TGI: 0.0364 µM
CCRF-CEM leukemia
  TGI: > 100 µM
HCT-116 colon
  TGI: 0.136 µM
HCT-15 colon
  TGI: 1.11 µM
HL-60(TB) leukemia
  TGI: > 100 µM
HOP-92 NSCLC
  TGI: > 100 µM
HS 578T breast
  TGI: > 100 µM
HT29 colon
  TGI: 1.1 µM
IGROV1 ovarian
  TGI: 0.467 µM
K-562 leukemia
  TGI: > 100 µM
KM12 colon
  TGI: 0.0257 µM
MCF7 breast
  TGI: 22 µM
MDA-N
  TGI: 0.00153 µM
MOLT-4 leukemia
  TGI: 1.64 µM
PC-3 prostate
  TGI: 0.108 µM
RPMI-8226 leukemia
  TGI: > 100 µM
SF-268 CNS
  TGI: > 100 µM
SF-295 CNS
  TGI: > 100 µM
SK-MEL-28 melanoma
  TGI: > 100 µM
SK-OV-3 ovarian
  TGI: 1.45 µM
SR leukemia
  TGI: > 100 µM
SW-620 colon
  TGI: > 100 µM
U251 CNS
  TGI: > 100 µM

## CCC1C(c2cccc(OC)c2O)c2cc3c(cc2OC1N1CCCC1)OCO3 (stereo not given)
786-0 renal
  TGI: 41.2 µM
A549 NSCLC
  TGI: 54.7 µM
ACHN renal
  TGI: 84.3 µM
CCRF-CEM leukemia
  TGI: 46.7 µM
EKVX NSCLC
  TGI: > 100 µM
HCC-2998 colon
  TGI: 21.9 µM
HCT-116 colon
  TGI: 21.2 µM
HCT-15 colon
  TGI: 40.3 µM
HOP-62 NSCLC
  TGI: 46.3 µM
HS 578T breast
  TGI: 29.9 µM
HT29 colon
  TGI: 37.5 µM
IGROV1 ovarian
  TGI: 45.3 µM
K-562 leukemia
  TGI: 38.7 µM
KM12 colon
  TGI: 50.8 µM
LOX IMVI melanoma
  TGI: 84.6 µM
M14 melanoma
  TGI: 23.9 µM
MCF7 breast
  TGI: > 100 µM
MDA-MB-435
  TGI: 15.9 µM
MDA-N
  TGI: 19.7 µM
MOLT-4 leukemia
  TGI: 45 µM
NCI-H23 lung
  TGI: > 100 µM
NCI-H460 lung
  TGI: 55.3 µM
NCI-H522 lung
  TGI: 35.4 µM
NCI/ADR-RES ovarian
  TGI: 54.7 µM
OVCAR-3 ovarian
  TGI: 44.5 µM
OVCAR-5 ovarian
  TGI: 76.9 µM
OVCAR-8 ovarian
  TGI: 89.9 µM
PC-3 prostate
  TGI: 89.2 µM
RPMI-8226 leukemia
  TGI: 34 µM
SF-268 CNS
  TGI: 58.9 µM
SF-295 CNS
  TGI: 50.8 µM
SF-539 CNS
  TGI: 27 µM
SK-MEL-2 melanoma
  TGI: 43.5 µM
SK-MEL-28 melanoma
  TGI: 43.4 µM
SK-MEL-5 melanoma
  TGI: 22.8 µM
SN12C renal
  TGI: 38.3 µM
SNB-19 CNS
  TGI: 46.9 µM
SNB-75 CNS
  TGI: 92.4 µM
SR leukemia
  TGI: 50.4 µM
SW-620 colon
  TGI: 58.8 µM
T-47D breast
  TGI: 68.7 µM
TK-10 renal
  TGI: 82.1 µM
UACC-257 melanoma
  TGI: 71.3 µM
UACC-62 melanoma
  TGI: 65.9 µM
UO-31 renal
  TGI: 39.5 µM
